Assay: Relative alpha-tocopherol content within blend before and after cryo-milling
Format: physicochemical
Excerpt: Relative Alpha-Tocopherol Content within Blend Before and after Cryo-Milling: […]

## Cc1c(C)c2c(c(C)c1O)CC[C@@](C)(CCC[C@H](C)CCC[C@H](C)CCCC(C)C)O2 [alpha-tocopherol]
  degradation of alpha-tocopherol with cryo-milling process: did not degrade

— patent publication US10449547B2, “Preparation of a powdery pharmaceutical composition by means of cryo-milling” (GRÜNENTHAL GMBH, priority 2013, dated 2019)
